Measured values: patent US20240368104A1, “Novel Dialkoxynaphtho[2,3-C]Furan-1(3H)-One Derivatives and Pharmaceutical Composition For Preventing or Treating Respiratory Disease or SARS-COV-2 Infection Disease, Comprising Same” (priority 2021, published 2024)
Like-named read-outs stand apart in the source and are kept apart here.

How the values were obtained:
SARS-COV-2 = test: microbe, parasite or virus in culture; type: cell-based; set-up: SI (Selectivity Index, CC50/IC50): unit not given here; details: for SI (Selectivity Index, CC50/IC50): SARS-COV-2, values >50 assumed to be 50; for IC50: read-out: SARS-COV-2 inhibition (IC50)
in vitro = details: African green monkey
[1] = Severe acute respiratory syndrome coronavirus 2, Vero cells, 24 hours infection
[2] = Severe acute respiratory syndrome coronavirus 2, Vero, 24 h

COc1cc2cc3c(c(-c4ccc(N(C)c5ccccc5)nc4)c2cc1OC)C(=O)OC3 [Example 222, 6,7-dimethoxy-9-(6-(methyl(phenyl)amino)pyridin-3-yl)naphtho[2,3-c]furan-1(3H)-one]
SI (Selectivity Index, CC50/IC50) (SARS-COV-2): 162.21
IC50 (SARS-COV-2; [1]): 0.31 µM
CC50 (in vitro): > 50 µM

COc1cc2cc3c(c(-c4ccc(F)nc4)c2cc1OC)C(=O)OC3 [Example 35, 9-(6-fluoropyridin-3-yl)-6,7-dimethoxynaphtho[2,3-c]furan-1(3H)-one]
SI (Selectivity Index, CC50/IC50) (SARS-COV-2): 1.00
IC50 (SARS-COV-2; [1]): > 50 µM
CC50 (in vitro): > 50 µM

COc1cc2cc(CO)c(C(=O)Cl)c(-c3cc4c(cc3O)OCO4)c2cc1OC [Example 224, 1-(6-hydroxybenzo[d][1,3]dioxol-5-yl)-3-(hydroxymethyl)-6,7-dimethoxy-2-naphthoyl chloride]
SI (Selectivity Index, CC50/IC50) (SARS-COV-2): 2.63
IC50 (SARS-COV-2; [1]): 1.9 µM
CC50 (in vitro): > 50 µM

COc1cc2cc3c(c(-c4cnc(OC)c(-c5nc6ccccc6[nH]5)c4)c2cc1OC)C(=O)OC3 [Example 204, 9-(5-(1H-benzo[d]imidazol-2-yl)-6-methoxypyridin-3-yl)-6,7-dimethoxynaphtho[2,3-c]furan-1(3H)-one]
SI (Selectivity Index, CC50/IC50) (SARS-COV-2): 0.93
IC50 (SARS-COV-2; [2]): 25.9 µM
CC50 (in vitro): 24.2 µM

COc1cc2cc3c(c(-c4cnc(N(C)C)cn4)c2cc1OC)C(=O)OC3 [Example 31, 9-(5-(dimethylamino)pyrazin-2-yl)-6,7-dimethoxynaphtho[2,3-c]furan-1(3H)-one]
SI (Selectivity Index, CC50/IC50) (SARS-COV-2): 11.86
IC50 (SARS-COV-2; [1]): 4.22 µM
CC50 (in vitro): > 50 µM

CCN(Cc1cccnc1)c1ccc(-c2c3c(cc4cc(OC)c(OC)cc24)COC3=O)cc1 [Example 254, 9-(4-(ethyl(pyridin-3-ylmethyl)amino)phenyl)-6,7-dimethoxynaphtho[2,3-c]furan-1(3H)-one]
SI (Selectivity Index, CC50/IC50) (SARS-COV-2): 12.17
IC50 (SARS-COV-2; [1]): 4.11 µM
CC50 (in vitro): > 50 µM

COc1cc2cc3c(c(-c4ccc(N(C)[C@H]5CCc6c(cccc6OC)C5)nc4)c2cc1OC)C(=O)OC3 [Example 164, (S)-6,7-dimethoxy-9-(6-((5-methoxy-1,2,3,4-tetrahydronaphthalen-2-yl)(methyl)amino)pyridin-3-yl)naphtho[2,3-c]furan-1(3H)-one]
SI (Selectivity Index, CC50/IC50) (SARS-COV-2): 39.02
IC50 (SARS-COV-2; [1]): 1.28 µM
CC50 (in vitro): > 50 µM

COc1cc2cc3c(c(-c4ccc(N5CCSCC5)nc4)c2cc1OC)C(=O)OC3 [Example 10, 6,7-dimethoxy-9-(6-thiomorpholinopyridin-3-yl)naphtho[2,3-c]furan-1(3H)-one]
SI (Selectivity Index, CC50/IC50) (SARS-COV-2): 91.58
IC50 (SARS-COV-2; [1]): 0.55 µM
CC50 (in vitro): > 50 µM

COc1cc2cc3c(c(N4CCN(c5ccc(Br)cn5)CC4)c2cc1OC)C(=O)OC3 [Example 129, 9-(4-(5-bromopyridin-2-yl)piperazin-1-yl)-6,7-dimethoxynaphtho[2,3-c]furan-1(3H)-one]
SI (Selectivity Index, CC50/IC50) (SARS-COV-2): 2.29
IC50 (SARS-COV-2; [1]): 21.8 µM
CC50 (in vitro): > 50 µM

COc1cc2cc3c(c(-c4ccnc(F)c4)c2cc1OC)C(=O)OC3 [Example 186, 9-(2-fluoropyridin-4-yl)-6,7-dimethoxynaphtho[2,3-c]furan-1(3H)-one]
SI (Selectivity Index, CC50/IC50) (SARS-COV-2): 1.0
IC50 (SARS-COV-2; [1]): > 50 µM
CC50 (in vitro): > 50 µM

COc1cc2cc3c(c(-c4ccc(N5CCn6c(nnc6C(F)(F)F)C5)nc4)c2cc1OC)C(=O)OC3 [Example 240, 6,7-dimethoxy-9-(6-(3-(trifluoromethyl)-5,6-dihydro-[1,2,4]triazolo[4,3-a]pyrazin-7 (8H)-yl)pyridin-3-yl)naphtho[2,3-c]furan-1(3H)-one]
SI (Selectivity Index, CC50/IC50) (SARS-COV-2): 1.00
IC50 (SARS-COV-2; [1]): > 50 µM
CC50 (in vitro): > 50 µM

COc1cc2cc3c(c(-c4cccc(N5CCOCC5)c4)c2cc1OC)C(=O)OC3 [Example 244, 6,7-dimethoxy-9-(3-morpholinophenyl)naphtho[2,3-c]furan-1(3H)-one]
SI (Selectivity Index, CC50/IC50) (SARS-COV-2): 1.00
IC50 (SARS-COV-2; [1]): > 50 µM
CC50 (in vitro): > 50 µM

COc1cc2cc3c(c(-c4cnc(N(CCO)CCO)nc4)c2cc1OC)C(=O)OC3.Cl [Example 85, 9-(2-(bis(2-hydroxyethyl)amino)pyrimidin-5-yl)-6,7-dimethoxynaphtho[2,3-c]furan-1(3H)-one hydrochloride]
SI (Selectivity Index, CC50/IC50) (SARS-COV-2): 1.00
IC50 (SARS-COV-2; [2]): > 50 µM
CC50 (in vitro): > 50 µM

COc1cc2cc3c(c(-c4ccc(N(C)Cc5cccnc5)cc4)c2cc1OC)C(=O)OC3 [Example 255, 6,7-dimethoxy-9-(4-(methyl(pyridin-3-ylmethyl)amino)phenyl)naphtho[2,3-c]furan-1(3H)-one]
SI (Selectivity Index, CC50/IC50) (SARS-COV-2): 15.74
IC50 (SARS-COV-2; [1]): 3.18 µM
CC50 (in vitro): > 50 µM

COc1cc2cc3c(c(-c4cnc(N[C@@H](C)c5ccc(F)cc5)nc4)c2cc1OC)C(=O)OC3 [Example 55, (S)-9-(2-((1-(4-fluorophenyl)ethyl)amino)pyrimidin-5-yl)-6,7-dimethoxynaphtho[2,3-c]furan-1(3H)-one]
SI (Selectivity Index, CC50/IC50) (SARS-COV-2): 4.23
IC50 (SARS-COV-2; [1]): 11.8 µM
CC50 (in vitro): > 50 µM

COc1cc2cc3c(c(N4C[C@@H](C)O[C@@H](C)C4)c2cc1OC)C(=O)OC3 [Example 2, 9-((2S,6R)-2,6-dimethylmorpholino)-6,7-dimethoxynaphtho[2,3-c]furan-1(3H)-one]
SI (Selectivity Index, CC50/IC50) (SARS-COV-2): 1.00
IC50 (SARS-COV-2; [1]): > 50 µM
CC50 (in vitro): > 50 µM

COc1cc2cc3c(c(-c4ccc5cccnc5c4)c2cc1OC)C(=O)OC3 [Example 118, 6,7-dimethoxy-9-(quinolin-7-yl)naphtho[2,3-c]furan-1(3H)-one]
SI (Selectivity Index, CC50/IC50) (SARS-COV-2): 257.92
IC50 (SARS-COV-2; [1]): 0.19 µM
CC50 (in vitro): > 50 µM

COc1cc2cc3c(c(-c4ccc(N5CCc6sccc6C5)nc4)c2cc1OC)C(=O)OC3 [Example 156, 9-(6-(6,7-dihydrothien[3,2-c]pyridin-5 (4H)-yl)pyridin-3-yl)-6,7-dimethoxynaphtho[2,3-c]furan-1(3H)-one]
SI (Selectivity Index, CC50/IC50) (SARS-COV-2): 48.93
IC50 (SARS-COV-2; [1]): 1.02 µM
CC50 (in vitro): > 50 µM

COc1cc2cc3c(c(-c4ccc(N(C)CC(C)C)nc4)c2cc1OC)C(=O)OC3 [Example 181, 9-(6-(isobutyl(methyl)amino)pyridin-3-yl)-6,7-dimethoxynaphtho[2,3-c]furan-1(3H)-one]
SI (Selectivity Index, CC50/IC50) (SARS-COV-2): 53.67
IC50 (SARS-COV-2; [1]): 0.93 µM
CC50 (in vitro): > 50 µM

CCN(c1ccc(-c2c3c(cc4cc(OC)c(OC)cc24)COC3=O)cn1)C1CCCC1 [Example 191, 9-(6-(cyclopentyl(ethyl)amino)pyridin-3-yl)-6,7-dimethoxynaphtho[2,3-c]furan-1(3H)-one]
SI (Selectivity Index, CC50/IC50) (SARS-COV-2): 35.47
IC50 (SARS-COV-2; [1]): 1.41 µM
CC50 (in vitro): > 50 µM

COc1cc2cc3c(c(-c4cnc(N5CCC[C@@H]5CO)nc4)c2cc1OC)C(=O)OC3.Cl [Example 82, (R)-9-(2-(2-(hydroxymethyl)pyrrolidin-1-yl)pyrimidin-5-yl)-6,7-dimethoxynaphtho[2,3-c]furan-1(3H)-one hydrochloride]
SI (Selectivity Index, CC50/IC50) (SARS-COV-2): 3.93
IC50 (SARS-COV-2; [2]): 12.7 µM
CC50 (in vitro): > 50 µM

COc1cc2cc3c(c(-c4cnc(N(C)c5ccc(C)c(C)c5)nc4)c2cc1OC)C(=O)OC3.Cl [Example 213, 9-(2-((3,4-dimethylphenyl)(methyl)amino)pyrimidin-5-yl)-6,7-dimethoxynaphtho[2,3-c]furan-1(3H)-one]
SI (Selectivity Index, CC50/IC50) (SARS-COV-2): 2.81
IC50 (SARS-COV-2): 4.41 µM

COc1cc2cc3c(c(-c4cnc(N5CCCC(O)C5)nc4)c2cc1OC)C(=O)OC3.Cl (stereo not drawn) [Example 80]
SI (Selectivity Index, CC50/IC50) (SARS-COV-2): 4.21
